Data reported in PubChem BioAssay (NCI).
Where “and” joins values, the source holds several entries; their conditions need not be identical. Equal values may be shown once.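 Tested at 5 concentrations; 48 h exposure; 96-well plates; endpoints linearly interpolated, else capped at highest concentration. GI50 = concentration required for 50% inhibition of growth. Definition used: TGI = concentration required for complete inhibition of growth.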

Columns and labels:
Assay in all cases: NCI-60 cell line screen, 48 h
BT-549 breast = tested on: BT-549 breast
CAKI-1 renal = tested on: CAKI-1 renal
HT29 colon = tested on: HT29 colon
MOLT-4 leukemia = tested on: MOLT-4 leukemia
NCI/ADR-RES ovarian = tested on: NCI/ADR-RES ovarian
RXF 393 renal = tested on: RXF 393 renal
SK-MEL-5 melanoma = tested on: SK-MEL-5 melanoma
SN12C renal = tested on: SN12C renal
SW-620 colon = tested on: SW-620 colon
T-47D breast = tested on: T-47D breast

Compound	GI50 (BT-549 breast)	TGI (BT-549 breast)	GI50 (CAKI-1 renal)	TGI (CAKI-1 renal)	GI50 (HT29 colon)	TGI (HT29 colon)	GI50 (MOLT-4 leukemia)	TGI (MOLT-4 leukemia)	GI50 (NCI/ADR-RES ovarian)	TGI (NCI/ADR-RES ovarian)	GI50 (RXF 393 renal)	TGI (RXF 393 renal)	GI50 (SK-MEL-5 melanoma)	TGI (SK-MEL-5 melanoma)	GI50 (SN12C renal)	TGI (SN12C renal)	GI50 (SW-620 colon)	TGI (SW-620 colon)	GI50 (T-47D breast)	TGI (T-47D breast)
Cc1cc(S(=O)(=O)Nc2nc3ccccc3c(=O)n2Cc2ccco2)c(S)cc1Cl	15700 nM	51.9 µM	44100 nM	> 100 µM	46200 nM	> 100 µM	18600 nM	> 100 µM	54800 nM	> 100 µM	61700 nM	> 100 µM	22800 nM	> 100 µM	29800 nM	88.8 µM	30700 nM	> 100 µM	15000 nM	81.4 µM
CC[C@]12C=CCN3CC[C@@]4(c5ccc(OC)cc5N(C)[C@H]4[C@@](O)(C(=O)OC)[C@@H]1OC(=O)CCC(=O)O[C@H]1CC[C@H]4[C@@H]5CCC6=CC(=O)CC[C@@H]6[C@H]5CC[C@]14C)[C@@H]32	1620 nM	9.38 µM	1560 nM	> 50 µM	1600 nM	11.4 µM	1550 nM	> 50 µM	1690 nM	> 50 µM	1330 nM	4.21 µM	990 nM	2.1 µM	1640 nM	> 50 µM	2120 nM	> 50 µM	1790 nM	> 50 µM
CS(=O)(=O)Nc1cc(-c2ccc3ncc(C#N)c(Nc4ccc(F)c(Cl)c4)c3c2)cnc1Cl	54.2 nM	0.655 µM	258 nM	1.24 µM	290 nM	2.3 µM	78.3 nM	0.487 µM	633 nM	> 100 µM	125 nM	0.6 µM	42.8 nM	0.159 µM	133 nM	> 100 µM	107 nM	4.31 µM	35.1 nM	0.403 µM
COc1ccc(OC)c(C2=C(c3cn(C)c4ccccc34)C(=O)NC2=O)c1	> 25000 nM	> 25 µM	> 25000 nM	> 25 µM	> 21500 nM	> 25 µM	24600 nM	> 25 µM	> 25000 nM	> 25 µM	> 25000 nM	> 25 µM	> 25000 nM	> 25 µM	> 25000 nM	> 25 µM	20800 nM	> 25 µM	> 25000 nM	> 25 µM
CN1C(=O)C(N=Nc2ccc([N+](=O)[O-])cc2)SC1=S (stereo not drawn)	4450 nM and 6280 nM	42.8 µM and 40.6 µM	1180 nM and 3880 nM	7.8 µM and 50 µM	3630 nM and 10800 nM	33.7 µM and > 100 µM	5820 nM and 5810 nM	> 100 µM	2620 nM and 4580 nM	64.4 µM and 37 µM	16600 nM and 12500 nM	97.4 µM and 77.5 µM	7770 nM and 11100 nM	28.9 µM and 27 µM	4390 nM and 9340 nM	> 100 µM and 75.9 µM	2530 nM and 8170 nM	> 100 µM	2710 nM and 4260 nM	> 100 µM and 47.5 µM
CCOc1cc(Cl)c(C(C)NC(=O)c2cccc(OC)c2)cc1OCC (stereo not drawn)	13400 nM	> 100 µM	11100 nM	> 100 µM	4230 nM	44.6 µM	5910 nM	> 100 µM	4180 nM	> 100 µM	9210 nM	63 µM	7390 nM	24.6 µM	28900 nM	> 100 µM	4000 nM	> 100 µM	7060 nM	> 100 µM
C=C(C)COc1ccc2c(c1)CCC1C2CCC2(C)C(=O)/C(=N/O)CC12 (stereo not drawn)		21.2 µM		10.2 µM		2.72 µM		6.05 µM		21.8 µM		6.78 µM		21.1 µM		14 µM		9.94 µM		8.61 µM
COc1cccc2nc(Nc3cccc(NC(=O)c4ccc(N5CCN(C)CC5)c(C(F)(F)F)c4)c3)ccc12	2790 nM	9.39 µM	1120 nM	3.46 µM	712 nM	1.61 µM	876 nM	2.27 µM	1500 nM	4.95 µM	802 nM	2.96 µM	1520 nM	5.03 µM	1700 nM	7.47 µM	968 nM	2.08 µM	1000 nM	3.37 µM
CC(C)C[C@H](NC(=O)[C@@H](Cc1ccccc1)n1ccc(Nc2ccccc2)cc1=O)B(O)O	289 nM	2.35 µM	403 nM	5.45 µM	342 nM	15.5 µM	247 nM	> 100 µM	13400 nM	> 100 µM	234 nM	0.564 µM	321 nM	1.14 µM	730 nM	6.94 µM	320 nM	14.4 µM	413 nM	3.97 µM
COc1ccc(-c2nc3sccn3c2-c2ccnc(NCCNS(=O)(=O)c3ccc(C(F)(F)F)cc3)n2)cc1	707 nM	5.94 µM	2640 nM	> 100 µM	2450 nM	> 100 µM	503 nM	> 100 µM	3120 nM	> 100 µM	2660 nM	63.2 µM	1240 nM	2.52 µM	688 nM	8.38 µM	4240 nM	38.9 µM	1690 nM	> 100 µM
O=C1/C(=C/c2ccc(Cl)cc2)CN(Cc2cn(CCCNc3ccnc4cc(Cl)ccc34)nn2)C/C1=C\c1ccc(Cl)cc1	1640 nM	3.18 µM	734 nM	2.92 µM	270 nM	0.775 µM	878 nM	> 24.5 µM	1650 nM	6.51 µM	1650 nM	3.15 µM	1720 nM	3.14 µM	960 nM	2.77 µM	316 nM	1.37 µM	1950 nM	6.37 µM
Nc1nc2ccc(CNc3ccc(C(=O)NC(CC(=O)O)C(=O)O)cc3)cc2c(=O)[nH]1 (stereo not drawn)	4020 nM	> 31 µM	1370 nM	> 100 µM	670 nM	> 100 µM	16300 nM	> 100 µM	2710 nM	> 100 µM	> 34700 nM	> 100 µM	5350 nM	> 100 µM	3860 nM	> 100 µM	525 nM	> 100 µM	> 100000 nM	> 100 µM
O=C(O)CN1C(=O)OC(c2ccccc2)C1=O (stereo not drawn)		> 100 µM		> 100 µM		> 100 µM		> 100 µM		> 100 µM		> 100 µM		> 100 µM		> 100 µM		> 100 µM		> 100 µM
O=S(=O)(NCCNc1nccc(-c2c(-c3ccc(F)cc3)nc3sccn23)n1)c1ccc(O)cc1	3140 nM	19.1 µM	4070 nM	48.3 µM	2090 nM	37.4 µM	3210 nM	15.7 µM	19500 nM	> 100 µM	4270 nM	24.8 µM	1390 nM	10.7 µM	3900 nM	76.6 µM	4470 nM	41.8 µM	2360 nM	19.2 µM
COc1ccc(-c2cc(=O)c3c(OC)c4ccoc4c(/C=C/C=O)c3o2)cc1	2140 nM	7.15 µM	5030 nM	> 100 µM	18100 nM	> 100 µM	1840 nM	5.97 µM	2840 nM	48 µM	2150 nM	4.49 µM	1690 nM	3.51 µM	2320 nM	59.5 µM	2300 nM	10.4 µM	2030 nM	> 100 µM
Cc1c(O)cccc1C(=O)N[C@@H](CSc1ccccc1)[C@H](O)CN1C[C@H]2CCCC[C@H]2C[C@H]1C(=O)NC(C)(C)C	4970 nM and 3880 nM	21.1 µM and 17.1 µM	2570 nM and 9320 nM	6.56 µM and > 37.8 µM	3060 nM and 5650 nM	12 µM and 19.9 µM	2220 nM and 2960 nM	5.46 µM and 10.4 µM	4870 nM and 6170 nM	32.1 µM and 27.1 µM	1960 nM and 2910 nM	4.26 µM and 6.37 µM	3120 nM and 5110 nM	13.5 µM and 11.7 µM	4070 nM and 6630 nM	12.6 µM and 18.3 µM	5660 nM and 8790 nM	27 µM and 29.9 µM	3790 nM and 6020 nM	19.4 µM and > 55.6 µM
COc1ccc(C2=C(c3ccccc3)C(=O)N3CCCC3C2)cc1 (stereo not drawn)	32500 nM	> 100 µM	8050 nM	> 100 µM	233 nM	> 100 µM		> 100 µM	8850 nM	> 100 µM	25500 nM	> 100 µM	3170 nM	> 100 µM	13000 nM	> 100 µM	1240 nM	> 100 µM	> 52400 nM	> 100 µM
COc1ccc2[nH]c(C(=O)OCc3ccc4c(Br)cc(Br)c(O)c4n3)cc2c1	881 nM	2.16 µM	482 nM	1.83 µM	390 nM	1.49 µM	452 nM	2.17 µM	1680 nM	7.3 µM	486 nM	1.8 µM	1610 nM	2.97 µM	617 nM	2.02 µM	364 nM	1.41 µM	1150 nM	3.57 µM
CS(=O)(=O)N1CCC(Nc2ncc(C(=O)c3c(F)cccc3F)c(N)n2)CC1	> 20700 nM	> 25 µM	8760 nM	> 25 µM	10100 nM	> 25 µM	11200 nM	> 25 µM	> 25000 nM	> 25 µM	5320 nM	17.9 µM	7650 nM	> 25 µM	12300 nM	> 25 µM	5730 nM	> 25 µM	12000 nM	> 25 µM
CC[C@]12C=CCN3CC[C@]4(C(=C(C(=O)OC)C1)Nc1cc5c(cc14)[C@@H]1[C@H](O5)[C@@H](O)[C@@]4(CC)CC(C(=O)OC)=C5Nc6ccccc6[C@@]56CCN1[C@@H]46)[C@@H]32	913 nM and 2490 nM	25 µM and > 100 µM	81.9 nM and 268 nM	8.09 µM and 37.7 µM	130 nM and 186 nM		432 nM and 338 nM	25 µM and > 100 µM	825 nM and 714 nM	25 µM and > 100 µM	523 nM and 456 nM	3.76 µM and 2.56 µM	662 nM and 348 nM	4.01 µM and 1.48 µM	464 nM and 499 nM	25 µM and 33.5 µM	868 nM and 495 nM	13.5 µM and 7.85 µM	335 nM	> 100 µM
Nc1c(C(=O)Nc2cccc(Cl)c2)sc2nc3c(cc12)C(O)CCC3 (stereo not drawn)	3140 nM	38.5 µM	432 nM	30.4 µM	315 nM	12.2 µM	488 nM	> 57.7 µM	583 nM	> 100 µM	396 nM	2.87 µM	375 nM	18.3 µM	773 nM	> 100 µM	480 nM	> 89.3 µM	463 nM	53.2 µM
COc1ccccc1CNCCCN1C(=O)c2ccc3c4c(ccc(c24)C1=O)C(=O)N(CCCNCCCCNCCCN)C3=O	1700 nM	3.57 µM	2600 nM	10.4 µM	287 nM	0.995 µM	570 nM	8.31 µM	2020 nM	7.7 µM	323 nM	1.39 µM	159 nM	0.302 µM	319 nM	1.5 µM	260 nM	1.28 µM	214 nM	0.49 µM
Cc1nc2ccc(-n3ncc(C(=O)c4cc5ccccc5[nH]4)c3N)cc2[nH]1	5430 nM	38.6 µM	7160 nM	> 100 µM	5130 nM	66.9 µM	5990 nM	56.1 µM	11900 nM	80.2 µM	2470 nM	15.7 µM	5460 nM	18.4 µM	12700 nM	> 100 µM	7780 nM	> 100 µM	6740 nM	45.2 µM
C=C(C(=O)c1ccccc1)C(NC(C)(C)C)c1ccccc1 (stereo not drawn)	2130 nM	4.6 µM	1910 nM	7.42 µM	1000 nM	3.13 µM	1760 nM	21.9 µM	2630 nM	12.4 µM	1210 nM	2.69 µM	1450 nM	2.82 µM	2120 nM	5.38 µM	1140 nM	3.44 µM	2440 nM	6.78 µM
